Measured values from patent publication US8440654B2, “Thieno- and furo-pyrimidine modulators of the histamine H4 receptor” (Janssen Pharmaceutica NV, priority 2007, dated 2013).
Counter-ions that a name gives are not always drawn.

Each compound was assayed against T1, human histamine H4 receptor (Homo sapiens, UniProt Q9H3N8) (assay: Binding Assay on Recombinant Human Histamine H4 Receptor). Settings: competition binding with 3H-histamine, membranes of SK-N-MC or COS7 cells transfected with human H4R; average of results obtained.
T1 construct: expressed in transfected cells; host or cells: SK-N-MC cells or COS7 cells, transiently transfected with pH4R; membrane preparation
Description: Biological Methods: Binding Assay on Recombinant Human Histamine H4 Receptor.
SK-N-MC cells or COS7 cells were transiently transfected with pH4R and grown in 150 cm^2 tissue culture dishes. Cells were washed with saline solution, scraped with a cell scraper and collected by centrifugation (1000 rpm, 5 min). Cell membranes were prepared by homogenization of the cell pellet in 20 mM Tris-HCl with a polytron tissue homogenizer for 10 sec at high speed. Homogenate was centrifuged at 1000 rpm for 5 min at 4° C. The supernatant was then collected and centrifuged at 20,000×g for 25 min at 4° C. The final pellet was resuspended in 50 mM Tris-HCl. Cell membranes were incubated with ^3H-histamine (5-70 nM) in the presence or absence of excess histamine (10,000 nM). Incubation occurred at room temperature for 45 min. Membranes were harvested by rapid filtration over Whatman GF/C filters and washed 4 times with ice-cold 50 mM Tris HCl. Filters were then dried, mixed with scintillant and counted for radioactivity. SK-N-MC or COS7 cells expressing human histamine H4 receptor were used to measure the affinity of binding of other compounds and their ability to displace ^3H-ligand binding by incubating the above-described reaction in the presence of various concentrations of inhibitor or compound to be tested. For competition binding studies using ^3H-histamine, K values were calculated, based on an experimentally determined KD value of 5 nM and a ligand concentration of 5 nM, according to Y.-C.

T1 sequence (Q9H3N8 whole entry): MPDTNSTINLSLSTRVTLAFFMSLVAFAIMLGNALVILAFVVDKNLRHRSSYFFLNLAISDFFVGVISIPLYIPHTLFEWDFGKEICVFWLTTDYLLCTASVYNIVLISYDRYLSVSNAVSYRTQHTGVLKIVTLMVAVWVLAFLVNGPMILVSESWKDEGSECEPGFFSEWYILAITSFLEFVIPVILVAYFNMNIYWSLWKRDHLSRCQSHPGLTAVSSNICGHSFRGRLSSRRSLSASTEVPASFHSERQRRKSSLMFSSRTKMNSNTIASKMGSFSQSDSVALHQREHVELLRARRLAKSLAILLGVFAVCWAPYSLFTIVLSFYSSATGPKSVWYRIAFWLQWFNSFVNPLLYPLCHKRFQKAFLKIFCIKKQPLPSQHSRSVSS

For CN(CCN)c1nc(N)nc2c3c(oc12)CCC(F)(F)C3 [Example 125, N^4-(2-Aminoethyl)-8,8-difluoro-N^4-methyl-6,7,8,9-tetrahydro[1]benzofuro[3,2-d]pyrimidine-2,4-diamine (free amine)], which Ki is on record?
Its Ki is 0.15 µM.

How did the Ki turn out when Nc1nc(N2CC[C@H](N)C2)c2oc3c(c2n1)CC(F)(F)CC3 [Example 126, 4-[(3S)-3-Aminopyrrolidin-1-yl]-8,8-difluoro-6,7,8,9-tetrahydro[1]benzofuro[3,2-d]pyrimidin-2-amine hydrochloride] was run?
Its Ki is 0.0061 µM.

With Nc1nc(N2CC(N)C2)c2oc3c(c2n1)CC(F)(F)CC3 [Example 127, 4-(3-Aminoazetidin-1-yl)-8,8-difluoro-6,7,8,9-tetrahydro[1]benzofuro[3,2-d]pyrimidin-2-amine hydrochloride] as the compound, how does the Ki read?
Its Ki is 0.064 µM.

Which Ki does the source give for NCCNc1nc(N)nc2c3c(sc12)CCC(F)(F)C3 [Example 128, N^4-(2-Aminoethyl)-8,8-difluoro-6,7,8,9-tetrahydro[1]benzothieno[3,2-d]pyrimidine-2,4-diamine hydrochloride] here?
The Ki was 0.15 µM.

For Nc1nc(N2C[C@H]3CNC[C@H]3C2)c2sc3c(c2n1)CC(F)(F)CC3 [Example 129, 8,8-Difluoro-4-[(3aR,6aS)-hexahydropyrrolo[3,4-c]pyrrol-2(1H)-yl]-6,7,8,9-tetrahydro[1]benzothieno[3,2-d]pyrimidin-2-amine (free amine)], which Ki is on record?
The Ki was 0.68 µM.

How did the Ki turn out when Nc1nc(N2CCCNCC2)c2oc3c(c2n1)CC(F)(F)CC3 [Example 130, 4-(1,4-Diazepan-1-yl)-8,8-difluoro-6,7,8,9-tetrahydro[1]benzofuro[3,2-d]pyrimidin-2-amine (free amine)] was run?
Its Ki is 0.0082 µM.

How did the Ki turn out when CC1(C)CCc2sc3c(N4CCCNCC4)nc(N)nc3c2C1 [Example 132, 4-(1,4-Diazepan-1-yl)-8,8-dimethyl-6,7,8,9-tetrahydro[1]benzothieno[3,2-d]pyrimidin-2-amine trifluoroacetate] was run?
Its Ki is 0.035 µM.

CN(CCN)c1nc(N)nc2c3c(sc12)CCC(C)(C)C3 [Example 133, N^4-(2-Aminoethyl)-N^4,8,8-trimethyl-6,7,8,9-tetrahydro[1]benzothieno[3,2-d]pyrimidine-2,4-diamine trifluoroacetate] was tested. Which Ki did it give?
Its Ki is 0.054 µM.

Which Ki does the source give for CN[C@@H]1CCN(c2nc(N)nc3c4c(sc23)CCC(C)(C)C4)C1 [Example 134, 8,8-Dimethyl-4-[(3R)-3-(methylamino)pyrrolidin-1-yl]-6,7,8,9-tetrahydro[1]benzothieno[3,2-d]pyrimidin-2-amine hydrochloride] here?
Its Ki is 0.0076 µM.

With CN[C@H]1CCN(c2nc(N)nc3c4c(sc23)CCC(C)(C)C4)C1 [Example 135, 8,8-Dimethyl-4-[(3S)-3-(methylamino)pyrrolidin-1-yl]-6,7,8,9-tetrahydro[1]benzothieno[3,2-d]pyrimidin-2-amine hydrochloride] as the compound, how does the Ki read?
The Ki was 0.035 µM.

How did the Ki turn out when CC1(C)CCc2sc3c(N4CC[C@@H](N)C4)nc(N)nc3c2C1 [Example 136, 4-[(3R)-3-Aminopyrrolidin-1-yl]-8,8-dimethyl-6,7,8,9-tetrahydro[1]benzothieno[3,2-d]pyrimidin-2-amine hydrochloride] was run?
The Ki was 0.0077 µM.

With CN[C@@H]1CCN(c2nc(N)nc3c4c(oc23)CCC(C)(C)C4)C1 [Example 137, 8,8-Dimethyl-4-[(3R)-3-(methylamino)pyrrolidin-1-yl]-6,7,8,9-tetrahydro[1]benzofuro[3,2-d]pyrimidin-2-amine hydrochloride] as the compound, how does the Ki read?
Its Ki is 0.018 µM.

“(3R)-N-Methyl-1-(6,7,8,9- tetrahydro[1]benzo- thieno[3,2-d]pyrimidin-4- yl)pyrrolidin-3-amine [Example 30]” was tested. Which Ki did it give?
Its Ki is 0.145 µM.
